Laboratory results from patent US4001230A, “3-(5-Nitroimidazol-2-yl)pyrazolo[3,4-d]pyrimidine compounds” (Eli Lilly and Company, priority 1975, dated 1977).
Read-outs that look alike come from different tables or passages of the source.

Tests used:
Pasteurella multocida = test: Efficacy against Pasteurella multocida infections in mice when administered by injection; assay type: in vivo, Female Swiss mice; conditions: for responders at 5 mg/kg / responders at 2.5 mg/kg: Pasteurella multocida, ip, read-out: Survival ratio (mice surviving / mice tested) (converted)
Experimental: The efficacy of the novel compounds against Pasteurella multocida infections in mice when administered by injection was studied.
Female Swiss mice weighing from 15 to about 20 g. were used. The test compound, 5.0 mg., was weighed out and dissolved in 0.5 ml. of dimethyl sulfoxide, and this solution was added to 9.5 ml. of sodium carboxymethylcellulose suspension. Groups of five mice each were injected intraperitoneally with 0.1 ml. each of the above-prepared test composition. This preparation gave a test rate of 2.5 mg. per kilo of body weight of mouse. The compounds were tested at 1.25, 2.5, or 5.0 per kilogram of body weight of mouse, and the test preparations for the rates of 1.25 and 5.0 mg./kg. were prepared in a similar manner. Immediately after receiving the test compound, the mice were challenged using log10 dilutions of 10^-^4, 10^-^5 and 10^-^6,of a 16 to 20-hour tryptose broth culture of Pasteurella multocida at 0.1 ml. per mouse subcutaneously. Similar groups of nontreated control mice were also challenged, the challenge being administered subcutaneously. The groups of mice were observed daily for mortality and the total mortality in treated groups compared with that which occurred in the nonmedicated control groups. Each test compound is identified by the number of the example describing its preparation.
In the chart, column 1 lists the test compound; column 2, the dosage of test compound in mg./kg. of mouse body weight; column 3, the dilution of the challenge organism; and column 4, the ratio of the number of mice surviving the test at each dosage and challenge dilution to the number of mice tested at each dosage and challenge dilution, called the survival ratio.

Treponema hyodysenteriae = test: In vitro activity against Treponema hyodysenteriae on blood agar plates (MIC); assay type: cell-based; conditions: for MIC: Brachyspira hyodysenteriae, 96 h, read-out: minimum inhibitory concentration (MIC); for inhibition of growth of the treponema: doubling dilutions 100 mcg./ml. to 0.39 mcg./ml.
Experimental: A number of representative compounds, namely, 5b, 8, and 15b, were tested for their in vitro activity against Treponema hyodysenteriae. The treponema were propagated on blood agar plates. Each plate which was prepared contained 20 ml. of trypticase soy agar (Baltimore Biological Laboratory [BBL]) with 5.0 g./l. of yeast extract (Difco) and 5 percent sterile defibrinated horse blood. The plates were sterile plastic 15 × 100 mm. petri plates. Incubation was carried out at 37° C. for 4 days under anaerobic conditions using the BBL Gas Pak system.
The concentrations of test compounds in this initial test were prepared in dilutions ranging from 2000 mcg./ml. to 7.8 mcg./ml. The test procedure was carried out in the following manner. Five ml. of a twenty-fold concentration in tryptose broth (Difco) of each filter-sterilized test compound dilution was mixed in a series of flasks containing 90 ml. of melted trypticase soy agar with yeast extract. Five ml. of horse blood was then added per flask. The contents of these flasks were then used to prepare a series of blood agar plates in doubling decreasing dilutions ranging from 100 mcg./ml. to 0.39 mcg./ml.
The treponema for inoculation of these plates were obtained by adding 3.0 ml. of sterile tryptose broth to the surface of a plate on which the treponema had been propagated. A sterile cotton-tipped swab was used to loosen the treponema from the agar. […] The inoculum was spread so that it covered the surface of each plate, a bent sterile plastic pipette being used for this purpose for each plate. The plates were incubated at about 36° C. for about 4 days and then examined for growth of the treponema. The minimum inhibitory concentration (MIC) of each test compound was the concentration that prevented growth of treponema.

Pseudomonas sp. = test: In vitro activity against fish bacterial pathogen, standard tube dilution test (MIC); assay type: cell-based; conditions: tryptose broth, overnight, about 37° C., read-out: minimum inhibitory concentration (MIC)
Experimental: (§1) The in vitro activity of certain of the novel compounds of this invention against two fish bacterial pathogens was determined using tryptose broth and the standard tube dilution test system. Doubling dilutions ranging from 100.0 to 0.78 mcg./ml. of each of the test compounds were prepared in 5 ml. amounts of tryptose broth. Each tube in the series was then inoculated with one drop from a 24-hour broth culture of either Pseudomonas sp. or a strain of Aeromonas liquefaciens. The tubes were incubated overnight at about 37° C., and the minimum inhibitory concentration (MIC) determined and recorded.
(§2) Column 1 lists the test compounds identified by their operating example number; column 2 lists the MIC for Pseudomonas sp.; and column 3 lists the MIC for Aeromonas liquefaciens.

Aeromonas liquefaciens = test: as above; assay type: cell-based; conditions: Aeromonas hydrophila, read-out: minimum inhibitory concentration (MIC)
Experimental: as §1, §2

[1] = 5.0 mg./kg. intraperitoneal, challenge dilution 10^-^4 subcutaneous
[2] = 5.0 mg./kg. intraperitoneal, challenge dilution 10^-^5 subcutaneous
[3] = 5.0 mg./kg. intraperitoneal, challenge dilution 10^-^6 subcutaneous
[4] = Aeromonas liquefaciens, tryptose broth, overnight, about 37° C.
[5] = 2.5 mg./kg. intraperitoneal, challenge dilution 10^-^4 subcutaneous
[6] = 2.5 mg./kg. intraperitoneal, challenge dilution 10^-^5 subcutaneous
[7] = 2.5 mg./kg. intraperitoneal, challenge dilution 10^-^6 subcutaneous

SMILES	responders at 5 mg/kg (Pasteurella multocida; [1]) [%]	responders at 5 mg/kg (Pasteurella multocida; [2]) [%]	responders at 5 mg/kg (Pasteurella multocida; [3]) [%]	further results
Cn1c([N+](=O)[O-])cnc1-c1nn(C)c2nc(C(F)(F)F)[nH]c(=O)c12 [Example 12, 1,5-Dihydro-1-methyl-3-(1-methyl-5-nitroimidazol-2-yl)-6-(trifluoromethyl)-4H-pyrazolo[3,4-d]pyrimidin-4-one]	20	20	0	
Cn1c([N+](=O)[O-])cnc1-c1nn(C)c2ncn(CCN3CCOCC3)c(=N)c12 [Example 15b, 4,5-Dihydro-4-imino-1-methyl-3-(1-methyl-5-nitroimidazol-2-yl)-5-(2-morpholinoethyl)-1H-pyrazolo[3,4-d]-pyrimidine diphosphate]				MIC (Treponema hyodysenteriae; blood agar plates, about 36° C., about 4 days): ≤ 1.56 µg/mL; inhibition of growth of the treponema (Treponema hyodysenteriae): inhibited growth of the treponema at each of the levels tested; MIC (Pseudomonas sp.): 1.56 µg/mL; MIC (Aeromonas liquefaciens; [4]): 50 µg/mL
Cn1c([N+](=O)[O-])cnc1-c1nn(C)c2ncn(Cc3ccncc3)c(=N)c12 [Example 8d, 4,5-Dihydro-4-imino-1-methyl-3-(1-methyl-5-nitroimidazol-2-yl)-5-(4-pyridylmethyl)-1H-pyrazolo[3,4-d]pyrimidine]	100	100	100	
CN(C)CCn1cnc2c(c(-c3ncc([N+](=O)[O-])n3C)nn2C)c1=N.Cl.Cl [Example 8g, 5-[2-(dimethylamino)-ethyl]-4,5-dihydro-4-imino-1-methyl-3-(1-methyl-5-nitroimidazol-2-yl)-1H-pyrazolo[3,4-d]pyrimidine dihydrochloride]				Survival ratio (mice surviving / mice tested) (Pasteurella multocida; [5]): 2/10; Survival ratio (mice surviving / mice tested) (Pasteurella multocida; [6]): 6/10; Survival ratio (mice surviving / mice tested) (Pasteurella multocida; [7]): 10/10; Survival ratio (mice surviving / mice tested) (Pasteurella multocida; [1]): 7/10; Survival ratio (mice surviving / mice tested) (Pasteurella multocida; [2]): 9/10; Survival ratio (mice surviving / mice tested) (Pasteurella multocida; [3]): 10/10
Cl.Cn1c([N+](=O)[O-])cnc1-c1nn(C)c2ncnc(N)c12 [Example 4a, 4-amino-1-methyl-3-(1-methyl-5-nitroimidazol-2-yl)-1H-pyrazolo[3,4-d]pyrimidine hydrochloride]				Survival ratio (mice surviving / mice tested) (Pasteurella multocida; [1]): 7/10; Survival ratio (mice surviving / mice tested) (Pasteurella multocida; [2]): 7/10; Survival ratio (mice surviving / mice tested) (Pasteurella multocida; [3]): 7/10
CCCn1cnc2c(c(-c3ncc([N+](=O)[O-])n3C)nn2C)c1=N [Example 5, 4,5-Dihydro-4-imino-1-methyl-3-(1-methyl-5-nitroimidazol-2-yl)-5-propyl-1H-pyrazolo[3,4-d]pyrimidine]	30	60	90	
CCN(CC)CCn1cnc2c(c(-c3ncc([N+](=O)[O-])n3C)nn2C)c1=N [Example 8a, 5-[2-(Diethylamino)ethyl]-4,5-dihydro-4-imino-1-methyl-3-(1-methyl-5-nitroimidazol-2-yl)-1H-pyrazolo[3,4-d]-pyrimidine]	40	20	100	
Cn1c([N+](=O)[O-])cnc1-c1nn(C)c2ncn(Cc3ccncc3)c(=N)c12 [Example 8k, 4,5-dihydro-4-imino-1-methyl-3-(1-methyl-5-nitroimidazol-2-yl)-5-(4-pyridylmethyl)-1H-pyrazolo[3,4-d]pyrimidine diphosphate]				MIC (Pseudomonas sp.): 0.78 µg/mL; MIC (Aeromonas liquefaciens; [4]): 50 µg/mL
Cn1c([N+](=O)[O-])cnc1-c1nn(C)c2ncnc(NN)c12.O=P(O)(O)O [Example 9a, 4-hydrazino-1-methyl-3-(1-methyl-5-nitroimidazol-2-yl)-1H-pyrazolo[3,4-d]-pyrimidine monophosphate]				MIC (Pseudomonas sp.): 0.78 µg/mL; MIC (Aeromonas liquefaciens; [4]): 25 µg/mL
Cn1c([N+](=O)[O-])cnc1-c1nn(C)c2ncnc(NN)c12 [Example 9, 4-Hydrazino-1-methyl-3-(1-methyl-5-nitroimidazol-2-yl)-1H-pyrazolo[3,4-d]pyrimidine]	100	80	90	
CCOC(Cn1cnc2c(c(-c3ncc([N+](=O)[O-])n3C)nn2C)c1=N)OCC [Example 14, 4-Imino-1-methyl-3-(1-methyl-5-nitroimidazol-2-yl)-1H-pyrazolo-[3,4-d]pyrimidine-5(4H)-acetaldehyde, diethyl acetal]	0	20	40	
CCCn1cnc2c(c(-c3ncc([N+](=O)[O-])n3C)nn2C)c1=N.O=[N+]([O-])O [Example 5b, 4,5-Dihydro-4-imino-1-methyl-3-(1-methyl-5-nitroimidazol-2-yl)-5-propyl-1H-pyrazolo[3,4-d]pyrimidine mononitrate]				MIC (Treponema hyodysenteriae): ≤ 1.56 µg/mL; inhibition of growth of the treponema (Treponema hyodysenteriae): inhibited growth of the treponema at each of the levels tested; MIC (Pseudomonas sp.): 3.12 µg/mL; MIC (Aeromonas liquefaciens): 25 µg/mL
Cn1c([N+](=O)[O-])cnc1-c1nn(C)c2ncnc(N)c12 [Example 4, 4-Amino-1-methyl-3-(1-methyl-5-nitroimidazol-2-yl)-1H-pyrazolo-[3,4-d]pyrimidine]		50	50	Survival ratio (mice surviving / mice tested) (Pasteurella multocida; [1]): 4/10
CC(=O)Nc1ncnc2c1c(-c1ncc([N+](=O)[O-])n1C)nn2C [Example 11, N-[1-Methyl-3-(1-methyl-5-nitroimidazol-2-yl)-1H-pyrazolo[3,4-d]-pyrimidin-4-yl]acetamide]	0	0	20	
CCn1cnc2c(c(-c3ncc([N+](=O)[O-])n3C)nn2C)c1=N [Example 7, 5-Ethyl-4,5-dihydro-4-imino-1-methyl-3-(1-methyl-5-nitroimidazol-2-yl)-1H-pyrazolo[3,4-d]pyrimidine]	40	70	100	responders at 2.5 mg/kg (Pasteurella multocida; [5]): 20%; responders at 2.5 mg/kg (Pasteurella multocida; [6]): 40%; responders at 2.5 mg/kg (Pasteurella multocida; [7]): 60%
Cn1c([N+](=O)[O-])cnc1-c1nn(C)c2ncnc(NCC(=O)O)c12 [Example 6, N-[1-Methyl-3-(1-methyl-5-nitroimidazol-2-yl)-1H-pyrazolo[3,4-d]pyrimidin-4-yl]glycine]	20	20	20	
